Reference: patent US12180226B2, “Spirotricycle RIPK1 inhibitors and methods of uses thereof” (Merck Sharp & Dohme LLC, priority 2021, dated 2024)

Each compound was assayed against RIPK1 (recombinant GST-RIPK1 kinase domain, residues 1-327) (Homo sapiens (Human), UniProt Q13546) (assay: RIPK1-ADP-Glo Enzymatic Assay). Settings: ADP-Glo; 25 nM GST-RIPK1, 300 μM ATP; assay lower limit ~25 nM; read-out: RIPK1 V0 Ec50.
Format: biochemical
How it was run: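 GST-tagged kinase domain (residues 1-327, Sf21-expressed), 25 nM, pre-incubated 30 min with compound at ambient temperature, then reacted 150 min with 300 μM ATP and 3 μM dephosphorylated MBP in HEPES pH 7.3 buffer. ADP measured by ADP-Glo luminescence; EC50 from ten-point titration (top 100000 nM), four-parameter fit.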

Sequence of RIPK1 (recombinant GST-RIPK1 kinase domain, residues 1-327) (Q13546 1-327): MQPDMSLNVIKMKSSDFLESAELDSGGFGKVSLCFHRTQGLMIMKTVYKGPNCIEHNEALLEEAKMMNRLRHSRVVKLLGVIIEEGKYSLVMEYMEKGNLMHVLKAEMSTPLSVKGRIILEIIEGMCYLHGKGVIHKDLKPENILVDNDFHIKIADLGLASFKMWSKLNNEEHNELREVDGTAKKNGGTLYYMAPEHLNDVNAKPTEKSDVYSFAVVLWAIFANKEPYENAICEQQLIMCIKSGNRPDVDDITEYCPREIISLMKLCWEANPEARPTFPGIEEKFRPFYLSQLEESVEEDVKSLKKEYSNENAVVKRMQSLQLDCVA

| EC50 [µM] | SMILES |
| --- | --- |
| 0.0633 | CCOC(=O)c1nc(N2CCC3(CC2)O[C@@H]2CC[C@@H](c4cc(F)cc(F)c4)N2C3=O)ncc1F [Example 4.205, ethyl 2-[(5′S,7a′R)-5′-(3,5-difluorophenyl)-3′-oxotetrahydro-1H,3′H-spiro[piperidine-4,2′-pyrrolo[2,1-b] [1,3]oxazol]-1-yl]-5-fluoropyrimidine-4-carboxylate] |
| < 0.025 | O=C(c1ccccc1)N1CCC2(CC1)O[C@@H]1CC[C@@H](c3ccccc3F)N1C2=O [Example 1.13, (5′S,7a′R)-1-benzoyl-5′-(2-fluorophenyl)tetrahydro-3′H-spiro[piperidine-4,2′-pyrrolo[2,1-b]oxazol]-3′-one] |
| < 0.025 | N#Cc1ccc(N2CCC3(CC2)O[C@@H]2CC[C@@H](c4ccccc4)N2C3=O)c(F)c1 [Example 4.73, 3-fluoro-4-[(5′S,7a′R)-3′-oxo-5′-phenyltetrahydro-1H,3′H-spiro[piperidine-4,2′-pyrrolo[2,1-b] [1,3]oxazol]-1-yl]benzonitrile] |
| < 0.025 | O=C1N2[C@@H](CC[C@H]2c2ccccc2)OC12CCN(c1ccc(-c3ncco3)c3ccnn13)CC2 [Example 21.22, (5′S,7a′R)-1-[4-(1,3-oxazol-2-yl)pyrazolo[1,5-a]pyridin-7-yl]-5′-phenyltetrahydro-3′H-spiro[piperidine-4,2′-pyrrolo[2,1-b][1,3]oxazol]-3′-one] |
| 0.131 | COc1cncc(C(=O)N2CCC3(CC2)O[C@@H]2CC[C@@H](c4cc(F)cc(F)c4)N2C3=O)n1 [Example 6.41, (5′S,7a′R)-5′-(3,5-difluorophenyl)-1-(6-methoxypyrazine-2-carbonyl)tetrahydro-3′H-spiro[piperidine-4,2′-pyrrolo[2,1-b] [1,3]-oxazol]-3′-one] |
| 0.182 | O=C(c1ccnc2ncnn12)N1CCC2(CC1)O[C@@H]1CC[C@@H](c3cc(F)cc(F)c3)N1C2=O [Example 6.76, (5′S,7a′R)-5′-(3,5-difluorophenyl)-1-([1,2,4]triazolo[1,5-a]pyrimidine-7-car-bonyl)tetrahydro-3′H-spiro[piperidine-4,2′-pyrrolo[2,1-b] [1,3]oxazol]-3′-one] |
| 0.436 | O=C(c1cncnc1)N1CCC2(CC1)O[C@@H]1CC[C@@H](c3cc(F)cc(F)c3)N1C2=O [Example 6.40, (5′S,7a′R)-5′-(3,5-difluorophenyl)-1-(pyrimidine-5-car-bonyl)tetrahydro-3′H-spiro[piperidine-4,2′-pyrrolo[2,1-b][1,3]oxazol]-3′-one] |
| 0.619 | Cc1nc(C(=O)N2CCC3(CC2)O[C@@H]2CC[C@@H](c4cccc(F)c4)N2C3=O)c(C)o1 [Example 6.126, (5′S,7a′R)-1-(2,5-dimethyl-1,3-oxazole-4-carbonyl)-5′-(3-fluorophenyl)tetra-hydro-3′H-spiro[piperi-dine-4,2′-pyrrolo[2,1-b][1,3]oxazol]-3′-one] |
| 0.192 | Cc1ccc(C(=O)N2CCC3(CC2)O[C@@H]2CC[C@@H](c4cc(F)cc(F)c4)N2C3=O)nc1C [Example 6.93, (5′S,7a′R)-5′-(3,5-difluorophenyl)-1-(5,6-dimethylpyridine-2-carbonyl)tetrahydro-3′H-spiro[piperidine-4,2′-pyrrolo[2,1-b] [1,3]oxazol]-3′-one] |
| 0.306 | Nc1nnc(N2CCC3(CC2)O[C@@H]2CC[C@@H](c4ccccc4)N2C3=O)s1 [Example 11.23, (5′S,7a′R)-1-(5-amino-1,3,4-thiadiazol-2-yl)-5′-phenyltetrahydro-3′H-spiro[piperidine-4,2′-pyrrolo[2,1-b][1,3]oxazol]-3′-one] |

More lines, now with the values behind:

| SMILES | EC50 [µM] |
| --- | --- |
| COCCN1Cc2nc(N3CCC4(CC3)O[C@@H]3CC[C@@H](c5ccccc5)N3C4=O)ccc2C1=O [Example 4.191, (5′S,7a′R)-1-[6-(2-methoxyethyl)-5-oxo-6,7-dihydro-5H-pyrrolo[3,4-b]pyridin-2-yl]-5′-phenyltetrahydro-3′H-spiro[piperidine-4,2′-pyrrolo[2,1-b] [1,3]oxazol]-3′-one] | 0.053 |
| Cn1nccc1C(=O)N1CCC2(CC1)O[C@@H]1CC[C@@H](c3cc(F)cc(F)c3)N1C2=O [Example 5.38, (5′S,7a′R)-5′-(3,5-difluoro-phenyl)-1-(1-methyl-1H-pyrazole-5-carbonyl)tetra-hydro-3′H-spiro[piperi-dine-4,2′-pyrrolo[2,1-b]oxazol]-3′-one] | 0.103 |
| O=C(c1cc(F)ccc1F)N1CCC2(CC1)O[C@@H]1CC[C@@H](c3cc(F)cc(F)c3)N1C2=O [Example 5.1, (5′S,7a′R)-1-(2,5-Difluorobenzoyl)-5′-(3,5-difluorophenyl)tetrahydro-3′H-spiro[piperidine-4,2′-pyrrolo[2,1-b]oxazol]-3′-one] | < 0.025 |
| O=C1N2[C@@H](CC[C@H]2c2ccccc2)OC12CCN(c1ccc(-c3ncco3)c3ncnn13)CC2 [Example 4.180, (5′S,7a′R)-1-[8-(1,3-oxazol-2-yl)[1,2,4]triazolo[1,5-a]pyridin-5-yl]-5′-phenyltetrahydro-3′H-spiro[piperidine-4,2′-pyrrolo[2,1-b] [1,3]oxazol]-3′-one] | < 0.025 |
| COc1cccc(C(=O)N2CCC3(CC2)O[C@@H]2CC[C@@H](c4cc(F)cc(F)c4)N2C3=O)c1 [Example 6.10, (5′S,7a′R)-5′-(3,5-difluorophenyl)-1-(3-methoxybenzene-1-carbonyl)tetrahydro-3′H-spiro[piperidine-4,2′-pyrrolo[2,1-b] [1,3]oxazol]-3′-one] | < 0.025 |
| N#Cc1ncc(N2CCC3(CC2)O[C@@H]2CC[C@@H](c4cc(F)cc(F)c4)N2C3=O)cn1 [Example 4.45, 5-[(5′S,7a′R)-5′-(3,5-difluorophenyl)-3′-oxotetrahydro-1H,3′H-spiro[piperidine-4,2′-pyrrolo[2,1-b] [1,3]oxazol]-1-yl]pyrimidine-2-carbonitrile] | 0.25 |
| Cc1c(Br)ccnc1C(=O)N1CCC2(CC1)O[C@@H]1CC[C@@H](c3cc(F)cc(F)c3)N1C2=O [Example 6.80, (5′S,7a′R)-1-(4-bromo-3-methylpyridine-2-carbonyl)-5′-(3,5-difluorophenyl)tetra-hydro-3′H-spiro [piperidine-4,2′-pyrrolo[2,1-b][1,3]-oxazol]-3′-one] | 0.153 |
| O=C(c1cnc(Cl)cn1)N1CCC2(CC1)O[C@@H]1CC[C@@H](c3cc(F)cc(F)c3)N1C2=O [Example 6.86, (5′S,7a′R)-1-(5-chloro-pyrazine-2-carbonyl)-5′-(3,5-difluorophen-yl)tetrahydro-3′H-spiro[piperidine-4,2′-pyrrolo[2,1-b][1,3]-oxazol]-3′-one] | 0.086 |
| CN(C)c1cccc(C(=O)N2CCC3(CC2)O[C@@H]2CC[C@@H](c4cccc(F)c4)N2C3=O)c1 [Example 6.124, (5′S,7a′R)-1-[3-(dimethylamino)-benzene-1-carbonyl]-5′-(3-fluorophenyl) tetrahydro-3′H-spiro [piperidine-4,2′-pyrrolo[2,1-b][1,3]-oxazol]-3′-one] | < 0.025 |
| Cc1occc1C(=O)N1CCC2(CC1)O[C@@H]1CC[C@@H](c3cc(F)cc(F)c3)N1C2=O [Example 5.37, (5′S,7a′R)-5′-(3,5-difluoro-phenyl)-1-(2-methylfuran-3-carbonyl)tetrahydro-3′H-spiro[piperidine-4,2′-pyrrolo[2,1-b]oxazol]-3′-one] | < 0.025 |
